molecular target: xanthine oxidase (Bos taurus, UniProt P80457); assay: xanthine oxidase inhibitory assay in vitro (absorbance at 295 nm, uric acid from xanthine); assay type: biochemical; settings: pure compounds, five concentrations each; read-out: IC50 of xanthine oxidase inhibition
Sequence (P80457 whole entry): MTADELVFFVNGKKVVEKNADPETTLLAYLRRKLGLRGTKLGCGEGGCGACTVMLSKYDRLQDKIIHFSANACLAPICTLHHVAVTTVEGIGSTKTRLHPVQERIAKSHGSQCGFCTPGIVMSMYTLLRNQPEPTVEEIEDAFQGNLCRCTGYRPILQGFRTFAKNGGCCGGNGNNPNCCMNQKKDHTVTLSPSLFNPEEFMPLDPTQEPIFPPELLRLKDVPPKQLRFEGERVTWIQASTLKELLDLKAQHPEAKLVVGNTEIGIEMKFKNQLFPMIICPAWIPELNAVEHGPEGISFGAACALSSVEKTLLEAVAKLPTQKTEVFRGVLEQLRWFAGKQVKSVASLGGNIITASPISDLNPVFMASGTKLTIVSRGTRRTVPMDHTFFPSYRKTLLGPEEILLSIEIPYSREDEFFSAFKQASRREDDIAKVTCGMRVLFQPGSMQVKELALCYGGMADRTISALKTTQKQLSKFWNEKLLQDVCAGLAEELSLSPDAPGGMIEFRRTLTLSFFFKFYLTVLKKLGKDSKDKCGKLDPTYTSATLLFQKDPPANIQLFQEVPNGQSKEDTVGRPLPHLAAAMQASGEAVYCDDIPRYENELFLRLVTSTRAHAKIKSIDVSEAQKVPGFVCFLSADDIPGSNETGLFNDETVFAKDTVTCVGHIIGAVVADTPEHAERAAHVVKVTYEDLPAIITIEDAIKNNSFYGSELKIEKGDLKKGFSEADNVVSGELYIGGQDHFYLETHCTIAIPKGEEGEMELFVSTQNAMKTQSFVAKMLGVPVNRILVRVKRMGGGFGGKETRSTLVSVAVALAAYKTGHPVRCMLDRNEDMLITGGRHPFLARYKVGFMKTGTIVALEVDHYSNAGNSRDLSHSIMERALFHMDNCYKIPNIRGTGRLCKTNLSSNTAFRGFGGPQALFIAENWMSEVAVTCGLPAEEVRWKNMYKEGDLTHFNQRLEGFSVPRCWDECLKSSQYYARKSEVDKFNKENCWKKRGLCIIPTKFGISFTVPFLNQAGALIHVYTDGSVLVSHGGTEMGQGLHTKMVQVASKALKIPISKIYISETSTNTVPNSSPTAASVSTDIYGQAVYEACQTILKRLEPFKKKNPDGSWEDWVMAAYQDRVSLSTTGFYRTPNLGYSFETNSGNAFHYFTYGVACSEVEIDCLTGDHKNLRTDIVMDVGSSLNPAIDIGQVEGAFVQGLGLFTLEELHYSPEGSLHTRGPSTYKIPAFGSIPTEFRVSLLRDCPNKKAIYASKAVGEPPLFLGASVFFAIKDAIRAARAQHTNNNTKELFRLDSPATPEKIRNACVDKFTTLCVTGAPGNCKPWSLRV
Description: For xanthine oxidase inhibition assay, 600 μL of supernatant was concentrated in a Termovap Sample Concentrator (Hangzhou Miulab Instruments Co., Ltd., Hangzhou, China) at 30 °C until elimination of solvent. The residue was redissolved in 600 μL PBS.
The xanthine oxidase inhibitory activities of DH and DS samples were determined by xanthine oxidase inhibitory activity assay in vitro [25], which was based on the increase in absorbance at 295 nm due to the production of uric acid from xanthine. In brief, 50 µL of DH or DS samples, 30 µL of phosphate buffer (70 Mm, pH 7.5), and 40 µL of xanthine oxidase (0.05 U/mL) were added into a 96-well plate. After preincubation at 25 °C for 8 min, 60 µL of xanthine (300 µM) was added. After incubation at 25 °C for 15 min, the reaction was stopped by adding 20 µL of HCl (1.0 M). The absorbance of the mixture solution was recorded at 295 nm by a microplate reader.
The control sample was prepared by adding PBS instead of tested sample. The background sample was prepared by replacing tested sample with the same volume of PBS. The blank sample was prepared by adding PBS instead of xanthine oxidase solution. All experiments were repeated three times. The inhibition ratio of xanthine oxidase was calculated as follows:Inhibition ratio (%) = [1 − (test sample-background sample/control sample-blank sample)] × 100
DH and DS samples were prepared in a series of concentrations. The xanthine oxidase inhibitory activities of DH and DS samples were evaluated by IC50 values (the concentration of the sample inhibited 50% the activity of the xanthine oxidase, and the IC50 values were calculated by a logarithmic regression curve. As DH and DS samples were mixtures of multiple constituents, the molar concentrations were uncertain. Thus, the IC50 values of anti-xanthine oxidase activities of DH and DS samples were expressed as mg/mL raw drug equivalents.

IC50 [µM]	Structure (SMILES)
220	CO[C@]1(CC[C@@H](C)CO[C@@H]2O[C@H](CO)[C@@H](O)[C@H](O)[C@H]2O)O[C@H]2C[C@H]3[C@@H]4CC=C5C[C@@H](O[C@@H]6O[C@H](CO)[C@@H](O[C@@H]7O[C@@H](C)[C@H](O)[C@@H](O)[C@H]7O)[C@H](O)[C@H]6O[C@@H]6O[C@@H](C)[C@H](O)[C@@H](O)[C@H]6O)CC[C@]5(C)[C@H]4CC[C@]3(C)[C@H]2[C@@H]1C [methyl protodioscin]
200	CC(CCC1(O)OC2CC3C4CC=C5CC(OC6OC(CO)C(OC7OC(C)C(O)C(O)C7O)C(O)C6OC6OC(C)C(O)C(O)C6O)CCC5(C)C4CCC3(C)C2C1C)COC1OC(CO)C(O)C(O)C1O (stereo not shown) [protodioscin]
190	CC(CCC1(O)OC2CC3C4CC=C5CC(OC6OC(CO)C(O)C(OC7OC(CO)C(O)C(O)C7O)C6OC6OC(C)C(O)C(O)C6O)CCC5(C)C4CCC3(C)C2C1C)COC1OC(CO)C(O)C(O)C1O (stereo not shown) [protogracillin]
250	CC1=C(CC[C@@H](C)CO[C@@H]2O[C@H](CO)[C@@H](O)[C@H](O)[C@H]2O)OC2CC3C4CC=C5CC(O[C@@H]6O[C@H](CO)[C@@H](O)[C@H](O[C@@H]7O[C@H](CO)[C@@H](O)[C@H](O)[C@H]7O)[C@H]6O[C@@H]6O[C@@H](C)[C@H](O)[C@@H](O)[C@H]6O)CC[C@]5(C)C4CC[C@]3(C)C12 (stereo partly shown) [pseudoprogracillin]
